The subject of series [1] is Normal Wistar rats. Description: Intravenous glucose tolerance test (IVGTT). The series is classed as in vivo, rat. The settings on record: for % increase AUC: Dose = 0.5 μg/kg / % increase AUC: Dose = 10 μg/kg: IVGTT, insulin. On the procedure: Intravenous glucose tolerance test (IVGTT): Normal Wistar rats are fasted overnight and are anesthetized prior to the experiment. A blood sampling catheter is inserted into the rats. The compound is given in the jugular vein. Blood samples are taken from the carotid artery. A blood sample is drawn immediately prior to the injection of glucose along with the compound. After the initial blood sample, glucose mixed with compound is injected intravenously (i.v.). A glucose challenge of 0.5 g/kg body weight is given, injecting a total of 1.5 mL vehicle with glucose and agonist per kg body weight. The peptide concentration vary to produce the desired dose in μg/kg. Blood samples are drawn at 2, 4, 6 and 10 minutes after giving glucose. The control group of animals receives the same vehicle along with glucose, but with no compound added. In some instances, a 30 minute post-glucose blood sample is drawn. Aprotinin is added to the blood sample (250 kIU/ml blood). The serum is then analyzed for glucose and insulin using standard methodologies.
The assay uses a formulated and calibrated peptide stock in PBS. Normally, this stock is a prediluted 100 μM stock. However, a more concentrated stock with approximately 1 mg agonist per mL is used. The specific concentration is always known. Variability in the maximal response is mostly due to variability in the vehicle dose.

In series [2] the target is T1, human VPAC2 (Homo sapiens, UniProt P41587).
T1 construct: expressed in transfected cells
T1 sequence (P41587 24-438): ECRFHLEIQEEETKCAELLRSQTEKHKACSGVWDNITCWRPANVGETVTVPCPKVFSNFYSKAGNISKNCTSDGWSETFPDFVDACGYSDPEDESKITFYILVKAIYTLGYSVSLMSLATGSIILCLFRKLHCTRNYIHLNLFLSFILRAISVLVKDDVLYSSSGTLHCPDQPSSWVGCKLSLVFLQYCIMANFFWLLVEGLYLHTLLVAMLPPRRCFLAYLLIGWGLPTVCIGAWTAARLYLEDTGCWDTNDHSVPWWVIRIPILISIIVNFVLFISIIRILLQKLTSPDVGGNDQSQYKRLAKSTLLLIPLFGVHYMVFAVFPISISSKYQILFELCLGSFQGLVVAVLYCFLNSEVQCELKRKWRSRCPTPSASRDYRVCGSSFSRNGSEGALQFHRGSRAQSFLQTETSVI
Description: Alpha screen cAMP in vitro potency, human VPAC2 receptor. The series is classed as cell-based. In outline: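 Stimulated cAMP accumulation is read by AlphaScreen after 60 min exposure of 50,000 non-enzymatically harvested cells to compound, followed by lysis with donor beads.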

Series [3] deals with T2, human PAC1 (Homo sapiens, UniProt P41586).
T2 sequence (P41586 21-468): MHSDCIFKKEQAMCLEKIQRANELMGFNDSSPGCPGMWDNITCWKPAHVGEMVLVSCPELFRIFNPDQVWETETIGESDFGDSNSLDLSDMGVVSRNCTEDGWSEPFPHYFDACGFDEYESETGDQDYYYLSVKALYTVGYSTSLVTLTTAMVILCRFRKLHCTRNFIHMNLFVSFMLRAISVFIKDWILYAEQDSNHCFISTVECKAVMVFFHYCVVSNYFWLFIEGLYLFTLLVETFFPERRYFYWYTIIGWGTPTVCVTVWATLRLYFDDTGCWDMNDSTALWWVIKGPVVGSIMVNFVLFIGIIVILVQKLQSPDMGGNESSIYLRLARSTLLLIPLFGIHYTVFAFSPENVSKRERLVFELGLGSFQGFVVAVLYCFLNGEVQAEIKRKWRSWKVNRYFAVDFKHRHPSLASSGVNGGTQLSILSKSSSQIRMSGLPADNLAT
Briefly: Filter binding assay, membranes of cells transiently transfected with human PAC1, 125I-labeled PACAP-27 tracer (Table 2). Also on record: expressed in transfected cells. Put shortly:
(§1)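 Membranes 2.5 μg/well; tracer ~40000 cpm; buffer 25 mM HEPES pH 7.4, 0.5% protease-free BSA; 1 h incubation, shaking. Glass-fibre filtration (0.5% polyethyleneamine presoak, 0.2% BSA block), 3× HEPES wash, dry 1 h at 60° C, scintillation count.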

The conditions of series [4]: rat, in vivo, iv; for Exposure (10 μg/kg, Vdist in μg/(nM * kg)): 10 ug/kg.
Description: An IVGTT with glucose is given immediately after T=0 to 6 animals per condition. Samples are taken at 0, 2, 4, 6, and 10 minutes after injection.
For cell handling, Plate 50,000 cells/well and keep in culture over night. Wash cell twice in PBS and add 50 μl/well stimulation medium consisting of PBS+1.2 MgCl2, 1.3 CaCl2, 2 glucose and 0.5 IBMX. Incubate 15 minutes and add 50 μl/well of the plasma samples (see layout below). Incubate 30 minutes, remove the supernatant and proceed as normal with the DiscoveRx assay. Prepare plates in duplicate. Protease and peptidase inhibitor are present in all plasma samples.
Series [5] has as its target T1, human VPAC2. Briefly: Filter binding assay, membranes of stable VPAC2 cell line, 125I-labeled VIP tracer (Table 2). Put shortly:
as §1

Series [6] deals with T3, human VPAC1 (Homo sapiens, UniProt P32241).
T3 sequence (P32241 31-457): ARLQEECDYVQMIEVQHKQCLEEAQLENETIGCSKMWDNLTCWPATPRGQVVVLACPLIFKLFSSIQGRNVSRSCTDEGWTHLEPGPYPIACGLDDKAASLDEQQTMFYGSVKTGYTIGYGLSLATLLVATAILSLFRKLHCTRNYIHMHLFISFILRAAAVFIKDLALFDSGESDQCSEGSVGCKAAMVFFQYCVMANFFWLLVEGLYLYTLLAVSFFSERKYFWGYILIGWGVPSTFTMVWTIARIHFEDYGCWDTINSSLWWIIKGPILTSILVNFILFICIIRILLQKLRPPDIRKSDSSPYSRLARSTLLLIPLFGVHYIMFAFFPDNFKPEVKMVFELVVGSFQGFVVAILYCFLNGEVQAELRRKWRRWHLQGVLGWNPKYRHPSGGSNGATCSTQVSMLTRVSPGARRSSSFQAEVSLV
Briefly: Filter binding assay, membranes of cells transiently transfected with human VPAC1, 125I-labeled VIP tracer (Table 2). Set-up: expressed in transfected cells. In outline:
as §1

Where [7] appears, read: cAMP generation, single result from two analyses performed in a single run, read-out: Human VPAC2 Receptor: Alpha Screen EC50.
The mark [8] stands for this setting: read-out: Human PAC1 Receptor Binding.
Where [9] appears, read: read-out: Human VPAC2 Receptor Binding.
[10] abbreviates: read-out: Human VPAC1 Receptor Binding.

“And” between values parts separate entries of the source, which are not always exact repeats. Equal values may be shown once. Read-outs that look alike come from different tables or passages of the source. Where a SMILES comes first, the peptide text is derived from it. Where no end group is shown, it is not given here. [ ]: non-standard residue; d: D form. The star is where a group is joined. Hexanoyl = CCCCCC(=O)*; Aib = CC(C)(N)C(=O)O

Broadly, the EC50 is the concentration needed to bring the measured effect to its halfway point. For `CCCCCC(=O)N[C@@H](Cc1c[nH]cn1)C(=O)N[C@@H](CO)C(=O)N[C@@H](CC(=O)O)C(=O)N[C@@H](C)C(=O)N[C@H](C(=O)N[C@@H](Cc1ccccc1)C(=O)N[C@H](C(=O)N[C@@H](CC(=O)O)C(=O)N[C@@H](CC(N)=O)C(=O)N[C@@H](Cc1ccc(O)cc1)C(=O)N[C@H](C(=O)N[C@@H](CCCNC(=N)N)C(=O)N[C@@H](CC(C)C)C(=O)N[C@@H](CCCNC(=N)N)C(=O)NC(C)(C)C(=O)N[C@@H](CCC(N)=O)C(=O)N[C@@H](CC(C)C)C(=O)N[C@@H](C)C(=O)N[C@@H](C)C(=O)NC(C)(C)C(=O)N[C@@H](CCCCN)C(=O)N[C@@H](Cc1ccc(O)cc1)C(=O)N[C@@H](CC(C)C)C(=O)N[C@@H](CCC(N)=O)C(=O)N[C@@H](CO)C(=O)N[C@H](C(=O)N[C@@H](CCCCN)C(=O)N[C@@H](CC(N)=O)C(=O)N[C@@H](CCCCN)C(=O)NCC(=O)NCC(=O)N1CCC[C@H]1C(=O)N[C@@H](CO)C(=O)N[C@@H](CO)C(=O)NCC(=O)N[C@@H](C)C(=O)N1CCC[C@H]1C(=O)N1CCC[C@H]1C(=O)N1CCC[C@H]1C(=O)N[C@@H](CO)C(=O)O)[C@@H](C)CC)[C@@H](C)O)[C@@H](C)O)C(C)C` [Agonist P292] (Hexanoyl-HSDAVFTDNYTRLR[Aib]QLAA[Aib]KYLQSIKNKGGPSSGAPPPS-OH; C-terminus assumed), in series [1], the “% increase AUC: Dose = 0.5 μg/kg” value is given as 292%. The “% increase AUC: Dose = 10 μg/kg” value in series [1] came out at 370%. Moreover, the EC50 in series [2] (setting [7]) turned out to be 0.23 nM. In addition, the IC50 in series [3] (setting [8]) is more than 25000 nM; in series [5] (setting [9]), 0.3 nM; in series [6] (setting [10]) it was more than 3000 nM. The “Exposure (0.5 μg/kg, Vdist in μg/(nM * kg))” value in series [4] (0.5 ug/kg) worked out at 9.5 µg/nM/kg. Also, in series [4], the “Exposure (10 μg/kg, Vdist in μg/(nM * kg))” value worked out at 1.9 µg/nM/kg.
“H-MHSDAVFTDNYTRLRKQVAAKKYLQSIKNKRYGGPSSGAPPPS [Agonist P104]”: in series [1], the “% increase AUC: Dose = 0.5 μg/kg” value is 142% and 205%. Also, the “% increase AUC: Dose = 10 μg/kg” value in series [1] was 198% and 370%. This compound registered a half-maximal effective concentration (EC50) in series [2] of 0.27 nM. Besides, the results for the IC50 in series [3], in series [5] and in series [6] were 117 nM, 0.68 nM and 301 nM, respectively.
“Hexanoyl-HSDAVFTDNYTRLLAKLALQKYLQSIKNKRYGGPSSGAPPPS [Agonist P119]”: in series [1], the “IVGTT ED50” value amounted to 0.3 µg/kg, the “% increase AUC: Dose = 0.5 μg/kg” value is given as 118% and the “% increase AUC: Dose = 10 μg/kg” value is listed as 240%. In addition, the EC50 in series [2] (setting [7]) was found to be 0.42 nM. Besides, in series [3] (setting [8]), the IC50 is more than 25000 nM. Further, the IC50 in series [5] (setting [9]) was determined as 0.48 nM. Also, the IC50 in series [6] (setting [10]) was more than 3000 nM.
Take “Hexanoyl-HSDAVFTDNYTRLRKQVAAKKYLQSIKNKRYGGPSSGAPPPS [Agonist P31]”: in series [1], the “% increase AUC: Dose = 0.5 μg/kg” value was 250%. Moreover, in series [2] (setting [7]), the EC50 was 0.13 nM. Besides, the values for the IC50 in series [3] (setting [8]), in series [5] (setting [9]) and in series [6] (setting [10]) were 406 nM, 0.23 nM and 145 nM, respectively. The “Exposure (10 μg/kg, Vdist in μg/(nM * kg))” value in series [4] stood at 10 µg/nM/kg.
Consider “Hexanoyl-HSDAVFTDNYTRLR[Aib]QVAAK[Aib]YLQSIKNKRYGGPSSGAPPPS [Agonist P264]”, for which the “% increase AUC: Dose = 0.5 μg/kg” value in series [1] was 10%. For the same compound, in series [1], the “% increase AUC: Dose = 10 μg/kg” value amounted to 95%. Also, the EC50 in series [2] (setting [7]) came to 0.1 nM. The values for the IC50 in series [3] (setting [8]), in series [5] (setting [9]) and in series [6] (setting [10]) were more than 25000 nM, 0.88 nM and more than 3000 nM, respectively. Besides, in series [4], the “Exposure (10 μg/kg, Vdist in μg/(nM * kg))” value is 5.1 µg/nM/kg.
As for “Hexanoyl-HSDAVFTDNYTRLR[Aib]QVAA[Aib]KYLQSIKNKRYGGPSSGAPPPS [Agonist P261]”, the “% increase AUC: Dose = 0.5 μg/kg” value in series [1] came to 136%. In addition, the “% increase AUC: Dose = 10 μg/kg” value in series [1] was 320%. Besides, the EC50 in series [2] (setting [7]) was determined as 0.09 nM. In addition, the IC50 in series [3] (setting [8]) was more than 25000 nM; in series [5] (setting [9]) it was 0.2 nM; in series [6] (setting [10]), 1000 nM. In addition, the “Exposure (10 μg/kg, Vdist in μg/(nM * kg))” value in series [4] was determined as 0.8 µg/nM/kg.

The values are drawn from patent US20080026996A1, “Selective Vpac2 Receptor Reptide Agonists” (ELI LILLY AND COMPANY, priority 2004, published 2008).
